Kd data for one molecule are collected here from PMC12733451, “A Novel RANKL/RANK Inhibitor IMB-R38 Inhibits Osteoporosis Through Regulating Bone Metabolism” (International Journal of Molecular Sciences, 2025).

The structures appear in SMILES notation.

For the assay, the target named is T1, RANK (Mus musculus, UniProt O35305).
T1 construct: gene Tnfrsf11a; extracellular segment of RANK (amino acid 26–210), His-RANK fusion expressed in E. coli
T1 sequence (O35305 26-210): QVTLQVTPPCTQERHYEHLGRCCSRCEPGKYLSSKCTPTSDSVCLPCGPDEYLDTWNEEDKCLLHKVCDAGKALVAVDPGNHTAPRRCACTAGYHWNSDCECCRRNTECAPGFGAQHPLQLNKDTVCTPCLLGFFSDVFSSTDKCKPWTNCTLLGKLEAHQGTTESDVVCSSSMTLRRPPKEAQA
Description: SPR on immobilized RANK; supported by CETSA in RAW264.[…] cells. The assay is classed as binding.

A word on the Kd: it is the free concentration of one partner at which half of the binding sites on the other are occupied at equilibrium, for simple one-to-one binding. With `O=C(Nc1ccc(N2CCCCC2)cc1)c1ccccc1O` [IMB-R38, 2-hydroxy-N-(4-(piperidin-1-yl)phenyl)benzamide], binding was put at a Kd of 945 µM.
